Experimental data from patent US11505556B2, “Halogenated derivatives of morphinans and uses thereof” (Xalud Therapeutics, Inc., priority 2017, dated 2022).
Read-outs that look alike come from different tables or passages of the source.

Legend:
in vitro [1] = conditions: rat, cultured hepatocytes
in vitro [2] = conditions: dog, cultured hepatocytes
hERG = hERG (Homo sapiens, UniProt Q12809); assay: hERG inhibition
Adrenergic α2A = biological target: T1, Adrenergic α2A (Homo sapiens, UniProt P08913); assay: Off-target screening; assay type: binding; conditions: 10 μM
T1 sequence (P08913 1-465): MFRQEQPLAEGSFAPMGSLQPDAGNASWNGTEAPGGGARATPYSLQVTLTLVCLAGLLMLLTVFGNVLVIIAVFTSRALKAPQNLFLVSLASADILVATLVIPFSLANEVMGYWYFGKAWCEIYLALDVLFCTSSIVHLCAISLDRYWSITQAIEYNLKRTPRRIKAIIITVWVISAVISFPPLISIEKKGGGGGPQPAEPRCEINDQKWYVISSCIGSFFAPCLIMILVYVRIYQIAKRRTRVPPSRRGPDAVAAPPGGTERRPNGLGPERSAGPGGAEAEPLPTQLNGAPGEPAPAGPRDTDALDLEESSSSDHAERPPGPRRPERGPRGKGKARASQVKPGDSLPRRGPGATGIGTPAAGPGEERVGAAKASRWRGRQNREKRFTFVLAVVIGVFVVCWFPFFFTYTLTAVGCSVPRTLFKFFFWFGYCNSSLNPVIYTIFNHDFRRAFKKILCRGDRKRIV
Description: (§1) In addition to the animal studies presented above in Examples 1-9, the results of in vitro testing of several of the compounds (i.e., XT-203, XT-204, and XT-206 through XT-217) are shown in Table 5 and Table 6. […]. Nine additional compounds had two or fewer off-target hits in the screening. […] These compounds spanned all of the tested N-modification classes. […]. Thus, the medicinal chemistry approach taken in this series of fluorinated compounds can yield low off-target activity and longer metabolic lifetime while preserving TLR4 antagonism. It is appreciated that further development of compounds in this class, using techniques known to those skilled in the art, may yield additional compounds with desirable pharmacologic and toxicologic characteristics.

[3] = test system: TLR4 (LPS-stimulated NO production, BV-2 mouse microglia cell line); assay: NO assay: inhibition of LPS-induced NO production in BV-2 microglia (iNOS cellular); assay type: cell-based; conditions: Mus musculus
Description: NO assay: Microglia are the resident cells of the innate immune system in the central nervous system, and TLR4 is primarily expressed by microglia rather than astrocytes or neurons in the CNS. Given this expression profile, the BV-2 mouse microglia cell line was used as the model system of microglia, as these cells recapitulate many of the responses of primary microglia with high fidelity. TLR4 activation induces the downstream production of the inflammatory factor NO, which contributes to the development of neuropathic pain and drug addiction. BV-2 murine microglia were grown in supplemented DMEM (including 10% FBS, 50 unit mL^−1 penicillin, 50 μg·mL^−1 streptomycin). BV-2 cells were detached from the flask by trypsin digestion when ˜80% confluence was reached. Cells were seeded at a density of 4×10^4 cells per well in 96-well plates. After overnight incubation, media was aspirated and changed to DMEM media without FBS. Cells were then treated with LPS (200 ng/ml) and different concentrations of the testing compounds. After 24 h treatment, 100 μL of supernatant media was removed after cells were treated for 24 h and added to flat black 96-well microfluor plates (Thermo Scientific, MA, USA). Subsequently, 10 μL of 2, 3-diaminonaphthalene (0.05 mg·mL^−1 in 0.62 M HCl) was added to each well and incubated for 15 min. The reaction was quenched by addition of 5 μL of 3 M NaOH and the plate was read on a Beckman Coulter DTX880 reader (Fullerton, Calif., USA) with excitation at 360 nm and emission at 430 nm.
N chain NTX: This experimentation involved an in vitro assay where mouse BV2 cells were treated with LPS, which results in the release of nitric oxide (NO). Blockade of TLR4 activity results in reduced NO production. Therefore, IC50 values were determined for test compounds that antagonize TLR4 activity. A series of test compounds were prepared, with different N-alkyl chains replacing the cyclopropyl methyl found in naltrexone. Cell viability was also measured by a standard assay, e.g., measurement of the release of cytoplasm-resident enzymes in the tissue culture supernatant or media to detect cell loss/lysis/rupture. A dose-inhibition curve was generated by testing the TLR4 antagonist compound for the ability to block LPS-stimulated iNOs induction. In FIG. 7, the inhibition levels across a range of doses are graphed, along with a regression curve. The IC50 value—50% inhibition level—is also provided, graphed against the length of the alkyl chain. Note that with longer N-alkyl chain the IC50 was reduced, although cell viability became problematic.
FIGS. 8B to 8D show the results of the inhibition of NO production from LPS-stimulated BV2 cells using the assay described above.

in vitro [4] = conditions: human, cultured hepatocytes
in vitro [5] = conditions: mouse, hepatocytes
[6] = test system: off-target screening panel; assay: Off-target inhibition screening (whole panel); conditions: 10 μM test concentration; hit = inhibition at or above the 50% level
Description: as §1

in vitro [7] = conditions: monkey, cultured hepatocytes
iNOS = iNOS (Homo sapiens, UniProt P35228); assay: iNOS enzyme inhibition; assay type: biochemical
Human hepatocytes = assay: Hepatocyte elimination of parent compound; conditions: cultured hepatocytes
Adenosine A2A = Adenosine A2A (Homo sapiens, UniProt P29274); assay: Off-target screening; assay type: binding
Description: as §1

Cannabinoid CB1 = Cannabinoid CB1 (Homo sapiens, UniProt P21554); assay: Off-target screening; assay type: binding
Description: as §1

[8] = Hepatocyte elimination of parent compound, spread across species; assay type: in vitro ADME; conditions: mouse, rat, dog, monkey, human, hepatocytes; lowest to highest species value; read-out: range of hepatocyte elimination half-life values across species
Protocol: Hepatocyte Elimination: (+)-NTX, AK-17 and XT-203 were incubated with cultured hepatocytes from the species listed in FIG. 9 and Table 4, and samples of the culture supernatant were collected over time. Samples were concentrated by nitrogen drying followed by reconstitution with 40% methanol for LC/MS analysis The data points were analyzed using the WinNonLin pharmacokinetics software package, and a half-life was determined that describes the rate of parent elimination. […].
as §1

[9] = Microglia, Table 6, unit inferred, footnote: Indicator of TL4 antagonism
[10] = LPS (200 ng/ml), 24 h, BV-2 cells, Table 3
[11] = read-out: iNOS enzyme, Table 6, unit inferred

Sequence of iNOS (P35228 whole entry): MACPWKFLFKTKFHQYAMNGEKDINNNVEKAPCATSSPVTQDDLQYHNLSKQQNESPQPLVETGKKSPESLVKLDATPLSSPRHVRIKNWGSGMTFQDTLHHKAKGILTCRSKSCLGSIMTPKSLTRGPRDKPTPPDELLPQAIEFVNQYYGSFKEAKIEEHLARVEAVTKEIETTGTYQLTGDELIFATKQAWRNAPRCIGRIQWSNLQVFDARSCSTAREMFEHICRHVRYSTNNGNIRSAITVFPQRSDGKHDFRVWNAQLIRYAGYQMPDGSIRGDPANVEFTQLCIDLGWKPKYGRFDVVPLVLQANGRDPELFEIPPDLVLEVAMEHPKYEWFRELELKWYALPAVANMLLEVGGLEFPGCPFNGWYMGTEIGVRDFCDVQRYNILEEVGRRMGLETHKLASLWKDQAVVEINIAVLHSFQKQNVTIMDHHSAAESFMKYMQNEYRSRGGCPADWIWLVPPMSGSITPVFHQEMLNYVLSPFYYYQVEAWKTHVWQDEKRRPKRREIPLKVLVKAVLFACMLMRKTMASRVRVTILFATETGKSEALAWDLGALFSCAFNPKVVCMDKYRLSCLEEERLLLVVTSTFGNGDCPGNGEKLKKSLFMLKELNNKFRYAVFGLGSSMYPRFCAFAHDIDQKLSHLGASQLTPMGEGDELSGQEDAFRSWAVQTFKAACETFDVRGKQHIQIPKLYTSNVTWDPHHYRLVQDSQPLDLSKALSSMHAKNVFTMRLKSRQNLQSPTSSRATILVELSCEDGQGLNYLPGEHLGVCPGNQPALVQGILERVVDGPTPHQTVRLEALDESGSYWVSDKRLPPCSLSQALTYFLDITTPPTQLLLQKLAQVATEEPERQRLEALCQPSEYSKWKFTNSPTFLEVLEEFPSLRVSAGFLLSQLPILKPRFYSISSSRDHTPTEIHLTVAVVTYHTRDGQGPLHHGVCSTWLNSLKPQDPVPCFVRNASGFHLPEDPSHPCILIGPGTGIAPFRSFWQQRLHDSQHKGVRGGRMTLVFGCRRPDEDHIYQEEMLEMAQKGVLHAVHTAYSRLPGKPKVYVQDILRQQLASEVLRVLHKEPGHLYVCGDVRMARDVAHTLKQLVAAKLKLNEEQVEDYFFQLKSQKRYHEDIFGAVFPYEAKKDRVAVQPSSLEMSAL
Sequence of hERG (Q12809 whole entry): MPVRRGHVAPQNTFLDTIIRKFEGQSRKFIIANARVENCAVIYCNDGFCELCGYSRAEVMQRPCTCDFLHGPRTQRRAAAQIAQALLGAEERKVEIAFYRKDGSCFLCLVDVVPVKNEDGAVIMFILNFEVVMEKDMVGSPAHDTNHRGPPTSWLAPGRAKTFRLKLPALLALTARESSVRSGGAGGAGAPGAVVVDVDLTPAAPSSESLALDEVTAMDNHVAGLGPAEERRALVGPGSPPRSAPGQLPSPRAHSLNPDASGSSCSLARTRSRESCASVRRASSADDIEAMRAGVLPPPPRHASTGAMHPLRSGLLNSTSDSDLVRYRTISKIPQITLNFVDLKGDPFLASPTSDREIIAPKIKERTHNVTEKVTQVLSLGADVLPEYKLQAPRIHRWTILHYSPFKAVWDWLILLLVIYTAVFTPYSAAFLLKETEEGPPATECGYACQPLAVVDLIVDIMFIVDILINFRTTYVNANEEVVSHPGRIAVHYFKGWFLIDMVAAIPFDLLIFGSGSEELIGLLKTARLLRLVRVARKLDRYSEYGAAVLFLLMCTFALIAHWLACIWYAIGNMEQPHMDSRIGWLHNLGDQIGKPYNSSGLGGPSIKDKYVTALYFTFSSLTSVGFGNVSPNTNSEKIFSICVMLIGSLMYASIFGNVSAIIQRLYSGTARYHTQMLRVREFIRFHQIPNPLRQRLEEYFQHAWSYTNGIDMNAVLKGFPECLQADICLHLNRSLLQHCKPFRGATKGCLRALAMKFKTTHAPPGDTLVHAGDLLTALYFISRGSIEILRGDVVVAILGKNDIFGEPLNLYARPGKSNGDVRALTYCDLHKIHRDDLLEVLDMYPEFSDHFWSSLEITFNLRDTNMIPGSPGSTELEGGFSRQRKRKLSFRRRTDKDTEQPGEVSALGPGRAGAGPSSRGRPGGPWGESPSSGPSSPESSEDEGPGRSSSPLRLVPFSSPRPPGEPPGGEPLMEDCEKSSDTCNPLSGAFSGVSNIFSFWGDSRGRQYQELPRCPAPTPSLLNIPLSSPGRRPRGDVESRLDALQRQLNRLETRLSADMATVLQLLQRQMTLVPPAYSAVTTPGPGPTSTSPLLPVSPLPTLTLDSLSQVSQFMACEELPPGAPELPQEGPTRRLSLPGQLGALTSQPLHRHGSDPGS
Sequence of Adenosine A2A (P29274 whole entry): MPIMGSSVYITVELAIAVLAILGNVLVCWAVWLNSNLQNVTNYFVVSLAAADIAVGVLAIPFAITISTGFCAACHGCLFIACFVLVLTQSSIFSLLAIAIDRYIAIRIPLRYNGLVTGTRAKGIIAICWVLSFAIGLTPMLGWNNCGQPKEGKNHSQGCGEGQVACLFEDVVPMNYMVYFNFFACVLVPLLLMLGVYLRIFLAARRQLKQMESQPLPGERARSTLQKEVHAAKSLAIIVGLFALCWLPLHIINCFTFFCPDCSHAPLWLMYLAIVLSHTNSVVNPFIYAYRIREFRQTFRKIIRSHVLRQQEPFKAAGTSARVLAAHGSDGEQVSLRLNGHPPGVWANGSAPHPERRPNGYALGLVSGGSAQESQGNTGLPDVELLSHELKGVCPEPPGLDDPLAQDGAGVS
Sequence of Cannabinoid CB1 (P21554 whole entry): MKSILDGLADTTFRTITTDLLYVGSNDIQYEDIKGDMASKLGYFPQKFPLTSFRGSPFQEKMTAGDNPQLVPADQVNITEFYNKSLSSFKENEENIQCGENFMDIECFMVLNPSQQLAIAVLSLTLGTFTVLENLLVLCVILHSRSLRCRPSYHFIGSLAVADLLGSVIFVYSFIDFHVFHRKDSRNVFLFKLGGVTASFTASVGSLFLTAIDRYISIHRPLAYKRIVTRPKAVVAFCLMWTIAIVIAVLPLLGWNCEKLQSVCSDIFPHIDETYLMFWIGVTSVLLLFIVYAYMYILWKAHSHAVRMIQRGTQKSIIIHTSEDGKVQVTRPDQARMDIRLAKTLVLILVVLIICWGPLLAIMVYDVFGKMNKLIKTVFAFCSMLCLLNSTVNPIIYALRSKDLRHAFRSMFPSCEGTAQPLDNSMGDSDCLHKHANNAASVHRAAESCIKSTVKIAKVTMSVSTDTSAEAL

| Compound | half-life (in vitro [1]) | half-life (in vitro [2]) | IC50 (hERG) | inhibition at 10 µM (Adrenergic α2A) | IC50 [3, 9] | IC50 [3, 10] | half-life (in vitro [4]) | half-life (in vitro [5]) | off-target hits in the screening [6] | half-life (in vitro [7]) | IC50 (iNOS) | IC50 (iNOS; [11]) | parent duration in human hepatocytes relative to XT-203 (Human hepatocytes) | inhibition at 10 µM (Adenosine A2A) | inhibition at 10 µM (Cannabinoid CB1) | half-life [8] |
| --- | --- | --- | --- | --- | --- | --- | --- | --- | --- | --- | --- | --- | --- | --- | --- | --- |
| COc1ccc2c3c1O[C@@H]1C(F)CCC4[C@H](C2)N(C2CC2)CC[C@]341 (stereo partly drawn) [XT-214] | 11.8 min | 37.7 min | > 10 µM | 51% | > 10 µM | > 10 µM | 52.9 min | 18.7 min | one off-target hit | 14.1 min |  |  |  |  |  |  |
| COc1ccc2c3c1O[C@@H]1C(F)CCC4[C@H](C2)N(C(=O)c2ccccc2)CC[C@]341 (stereo partly drawn) [XT-207] | 11.6 min | 39.8 min | > 10 µM |  | > 10 µM | > 10 µM | 37.4 min | 22.4 min | no off-target hits and none | 12.4 min | > 10 µM | > 10 µM |  |  |  |  |
| COc1ccc2c3c1O[C@@H]1C(F)CCC4[C@H](C2)N(S(=O)(=O)C2CC2)CC[C@]341 (stereo partly drawn) [XT-212] | 14.4 min | 86.4 min | > 10 µM |  | > 10 µM | > 10 µM | 61.2 min | 19.8 min | no off-target hits and none | 21.2 min |  |  | longer parent duration than XT-203 |  |  |  |
| COc1ccc2c3c1O[C@@H]1C(F)CCC4[C@H](C2)N(S(=O)(=O)c2ccccc2)CC[C@]341 (stereo partly drawn) [XT-208] | 12.7 min | 14.6 min | > 10 µM |  | > 10 µM | > 10 µM | 19.7 min | 10.9 min | two off-target hits | 8.7 min | > 10 µM | > 10 µM |  | 64% | 54% | 8.7 to 19.7 min |
